Experimental data taken from patent US11603368B2, “Fused thiophene derivatives and their uses” (ENYO PHARMA, priority 2018, dated 2023).

How the values were obtained:
[1] = tested on: H1N1 (influenza A/New Caledonia/20/99); assay: Antiviral effect on A549 cells infected with H1N1; format: cell-based, H1N1 A/New Caledonia/20/99 virus; conditions: Human A549 cells, MOI of 0.1, 48 h post-infection, MUNANA hydrolysis readout
Protocol: The antiviral effect of the compounds of the invention has been tested on A549 cell lines infected with H1N1 (influenza A/New Caledonia/20/99).
Human A549 cells (80,000 cells/well in a 96 well plate) were treated with a range of concentration of test molecules and immediately infected by H1N1 A/New Caledonia/20/99 virus (clinical isolate) at MOI of 0.1 in DMEM/1% Penicillin/streptomycin supplemented with 0.25 μg/ml TPCK trypsin (Sigma) and incubated at 37° C. in 5% CO2. 48 h post-infection, supernatants (25 μl) were collected and transferred into a 96-well black flat-bottom plate, mixed with 25 μl PBS with Ca++/Mg++(Thermo Fisher) and 50 μl of 2′-(4-Methylumbelliferyl)-α-D-N-acetylneuraminic acid sodium salt hydrate stock-solution (20 μM, MUNANA, Sigma). Plates were incubated 1 h at 37° C. and reaction is stopped by adding 100 μl of Stop Solution (glycine 0.1 M pH10.7/25% ethanol). The amount of fluorescent product released by MUNANA hydrolysis (4-MU) was measured in a Tecan spectrophotometer with excitation and emission wavelengths of 365 and 450 nm respectively.

[2] = tested on: NFκB; assay: NFκB reporter assay, TNFα stimulation; format: cell-based; conditions: Homo sapiens; A549 NFκB-NanoLuciferase reporter cells, 4 ng/ml TNFα, 6 hours
From the text: Compounds of the present invention have been tested for their capacity to inhibit NFκB.
The NFκB reporter construct was made by cloning 5 NFκB responsive elements upstream of a NanoLuciferase reporter gene flanked by AAVS1 genomic sequences.
NFκB Responsive element fused with NanoLuciferase and SV40 late Poly(A) signal was amplified from pNL3.2-NFκB-Nluc (Promega) using NFκB-NLUC-F and NFκB-NLUC-R primers and inserted by Infusion (TaKaRa) in AAVS1 SA-2A-puro-pA donor plasmid (Hockemeyer et al, Nat Biotechnol. 2009, 27, 851-7) digested by Sal1. pCRISPR AAVS1-T2 expressing a guide RNA (gRNA) to target human AAVS1 (T2 target sequence) was constructed by inserting AAVS1-T2A hybridized primers in pLentiCRISPR v2-blast (Sanjana et al, Nat Methods. 2014, 11, 783-4) digested by Bsmb1.
A549 cells were transfected by the plasmids and puromycine selected for 5 days (1 μg mL-1). Then clones were obtained by limiting dilution and selected to maximize TNF dependent NFkB-NanoLuciferase induction.
The reporter cells were seeded on a 96-well plate for overnight with DMEM including 10% FBS. Test compounds were added at varying concentrations. The cells then were treated with 4 ng/ml TNFα (Peprotech, ref E251) in DMEM+10% FBS. NanoGlo luciferase assay (Promega) was carried out 6 hours later. Luminescence was measured using a Spark 20M spectrofluorimeter (Tecan). Values were normalized to the luminescence measured in untreated cells.

[3] = target: T1, CISD1 Gene Product (mitoNEET) (Homo sapiens, UniProt Q9NZ45); assay: Stability of Fe—S cluster binding of purified NEET protein mitoNEET; format: biochemical; conditions: for Time (in minutes) to achieve 50% loss of bound cluster (Absorbance 458 nm), CISD1 Gene Product (mitoNEET) / Residual cluster bound at end of experiment (Percentage Absorbance 458 nm at time zero), CISD1 Gene Product (mitoNEET): pH 6, 37° C., 1:3 protein:compound molar ratio; for Time (in minutes) to achieve 50% loss of bound cluster (Absorbance 458 nm), CISD1 Gene Product (mitoNEET): 6 μM compound, run time 180 minutes, Vehicle Control 80; for Residual cluster bound at end of experiment (Percentage Absorbance 458 nm at time zero), CISD1 Gene Product (mitoNEET): end of 180 minutes, Vehicle Control 16%; for stabiliser or destabiliser of Fe—S cluster binding, CISD1 Gene Product (mitoNEET): time to 50% Fe—S cluster bound loss changed by more than 25% vs Control sample, at the concentrations tested
T1 sequence (Q9NZ45 33-108 limits assumed): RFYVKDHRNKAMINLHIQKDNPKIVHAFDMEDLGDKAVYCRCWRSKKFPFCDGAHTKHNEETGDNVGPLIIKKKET
Protocol: (§1) The modulator effect on the NEET proteins encoded by human CISD1, CISD2, and CISD3 genes by the compounds of the invention has been tested and is reported below. Particularly, the biochemical function of the NEET proteins is measured by the stability of Fe—S cluster binding of the purified NEET proteins.
(§2) The Fe—S cluster binding capacity of NEET proteins is known to be coordinated by four amino-acids in a stretch of 16 (three Cysteine and one Histidine). As the lability of the Fe—S cluster of NEET proteins is sensitive to the environment, cluster stability measurements are one of the measures of interactions of NEET proteins with small molecules and compounds. NEET protein/2Fe-2S cluster stability can be assessed by monitoring the decay in absorbance of its characteristic 458-nm peak (characteristic of the oxidized 2Fe-2S cluster) over time. Each NEET protein (mitoNEET, NAF-1 and Miner 2) was tested for its Fe—S binding in the absence or presence of a compound according to the invention (see table 2 below). The rate of cluster release (time in minutes to achieve 50% loss of bound Fe—S cluster) was compared for each NEET protein in the presence of one of the compounds of the invention (in a 1:3 protein:compound molar ratio) relative to each protein alone.
(§3) At pH 6, all the three NEET proteins (mitoNEET, NAF-1 and Miner 2) have a characteristic rate of loss of the bound Fe—S cluster that can be measured by the decrease of absorbance at wavelength 458 nm over time, using a spectrophotometer. Thus, Bis-Tris buffer (100 mM Bis-Tris pH6, 100 mM Nacl) was used at pH 6 to dilute either DMSO (Blank sample: Bis-Tris Buffer pH 6, 6 μM DMSO), DMSO and one of the three NEET proteins (Control sample: Bis-Tris Buffer pH 6, 6 μM DMSO, 2 μM purified NEET protein) or DMSO, one of the three NEET proteins and a compound of the invention (Test sample: Bis-Tris Buffer pH 6, 6 μM DMSO, […], 6 μM compound of the invention).
(§4) A reaction mix containing DMSO diluted in the Bis-Tris Buffer with or without a compound of the invention was prepared. The purified NEET protein was the last component added to the reaction mix which was then aliquoted into 4 replicates in 96 wells plates. The absorbance at wavelength 458 nm was taken at 5 minutes intervals at 37° C. with a spectrofluorimeter. The assay run time for CISD2 gene product (NAF-1) was 500 minutes and 180 minutes for both the CISD 1 gene product (mitoNEET) and the CISD3 gene product (Miner 2).
(§5) In addition to time monitoring, residual bound Fe—S cluster to NEET protein was measured at the final point of the spectrometry assay for each Test sample and compared to the Control sample data (in parenthesis table 2). This residual binding is measured by the differential percentage between the absorbance 458 nm at time zero and the absorbance 458 nm at the end of the experiment (i.e. respectively 500 or 180 minutes as described hereabove), showing the percentage of NEET protein still able to bind a Fe—S cluster.
(§6) Analysis of the absorbance enables the time for which 50% loss of bound Fe—S cluster is reached (i.e. a 50% absorbance decrease at 458 nm) for each Test sample and each Control sample (in parenthesis table 2) to be determined. The data are then compared to determine whether the compound of the invention stabilizes or destabilizes the NEET protein/Fe—S cluster binding.

[4] = target: T2, CISD2 Gene Product (NAF-1) (Homo sapiens, UniProt Q8N5K1); assay: Stability of Fe—S cluster binding of purified NEET protein NAF-1; format: biochemical; conditions: for Time (in minutes) to achieve 50% loss of bound cluster (Absorbance 458 nm), CISD2 Gene Product (NAF-1) / Residual cluster bound at end of experiment (Percentage Absorbance 458 nm at time zero), CISD2 Gene Product (NAF-1): pH 6, 37° C., 1:3 protein:compound molar ratio; for Time (in minutes) to achieve 50% loss of bound cluster (Absorbance 458 nm), CISD2 Gene Product (NAF-1): 6 μM compound, run time 500 minutes, Vehicle Control 310; for Residual cluster bound at end of experiment (Percentage Absorbance 458 nm at time zero), CISD2 Gene Product (NAF-1): end of 500 minutes, Vehicle Control 3%
T2 sequence (Q8N5K1 57-135 limits assumed): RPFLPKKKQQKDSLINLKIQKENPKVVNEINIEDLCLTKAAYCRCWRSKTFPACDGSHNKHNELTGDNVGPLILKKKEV
Protocol: as §1, §2, §3, §4, §5, §6

[5] = target: T3, CISD3 Gene Product (Miner2) (Homo sapiens, UniProt P0C7P0); assay: Stability of Fe—S cluster binding of purified NEET protein Miner2; format: biochemical; conditions: for Time (in minutes) to achieve 50% loss of bound cluster (Absorbance 458 nm), CISD3 Gene Product (Miner2) / Residual cluster bound at end of experiment (Percentage Absorbance 458 nm at time zero), CISD3 Gene Product (DMSO 11%): pH 6, 37° C., 1:3 protein:compound molar ratio; for Time (in minutes) to achieve 50% loss of bound cluster (Absorbance 458 nm), CISD3 Gene Product (Miner2): 6 μM compound, run time 180 minutes, Vehicle Control 60; for Residual cluster bound at end of experiment (Percentage Absorbance 458 nm at time zero), CISD3 Gene Product (DMSO 11%): end of 180 minutes, Vehicle Control 11%; for stabiliser or destabiliser of Fe—S cluster binding, CISD3 Gene Product (Miner2): time to 50% Fe—S cluster bound loss changed by more than 25% vs Control sample, at the concentrations tested
T3 sequence (P0C7P0 15-127): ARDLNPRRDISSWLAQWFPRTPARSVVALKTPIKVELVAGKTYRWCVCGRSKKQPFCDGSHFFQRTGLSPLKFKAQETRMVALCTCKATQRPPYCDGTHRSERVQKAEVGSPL
Protocol: as §1, §2, §3, §4, §5, §6

[6] = Influenza A virus, H1N1, A549, 48 h

Structure (SMILES)	IC50 [1, 6]	EC50 [2]	Time (in minutes) to achieve 50% loss of bound cluster (Absorbance 458 nm), CISD1 Gene Product (mitoNEET) [3]	Residual cluster bound at end of experiment (Percentage Absorbance 458 nm at time zero), CISD1 Gene Product (mitoNEET) [3]	stabiliser or destabiliser of Fe—S cluster binding, CISD1 Gene Product (mitoNEET) [3]	Time (in minutes) to achieve 50% loss of bound cluster (Absorbance 458 nm), CISD2 Gene Product (NAF-1) [4]	Residual cluster bound at end of experiment (Percentage Absorbance 458 nm at time zero), CISD2 Gene Product (NAF-1) [4]	Time (in minutes) to achieve 50% loss of bound cluster (Absorbance 458 nm), CISD3 Gene Product (Miner2) [5]	Residual cluster bound at end of experiment (Percentage Absorbance 458 nm at time zero), CISD3 Gene Product (DMSO 11%) [5]	stabiliser or destabiliser of Fe—S cluster binding, CISD3 Gene Product (Miner2) [5]	IC50 [1]	stabiliser or destabiliser of Fe—S cluster binding, CISD2 Gene Product (NAF-1) ([4]; time to 50% Fe—S cluster bound loss changed by more than 25% vs Control sample, at the concentrations tested)
COc1ccc(C(=O)Nc2sc3c(c2C(=O)O)CCC(C(C)(C)C)C3)cc1 (centres unmarked) [#1]	54.8 nM	160 nM	–	–	–	–	–	–	–	–	–	–
CC(C)(C)C1CCc2c(sc(NC(=O)c3ccc(Cl)cc3)c2C(=O)O)C1 (centres unmarked) [#10]	26 nM	300 nM	during 180 minutes	62%	stabilisers	290 min	42%	during 180 minutes	56%	Stabilisers	–	–
CC(C)(C)C1CCc2c(sc(NC(=O)c3ccccc3F)c2C(=O)O)C1 (centres unmarked) [#69]	–	320 nM	–	–	–	–	–	–	–	–	120 nM	–
O=C(Nc1sc2c(c1C(=O)O)C(c1ccccc1)CCC2)c1ccccc1 (centres unmarked) [#112]	1370 nM	–	100 min	29%	stabilisers	425 min	23%	during 180 minutes	64%	Stabilisers	–	Stabilisers
CC(C)(C)C1CCc2c(sc(NC(=O)C3CCCCC3)c2C(=O)O)C1 (centres unmarked) [#115]	1470 nM	–	100 min	34%	stabilisers	240 min	15%	65 min	28%	–	–	–
